Laboratory results published in patent publication US11840686B2, “Modulation of prekallikrein (PKK) expression” (Ionis Pharmaceuticals, Inc., priority 2013, dated 2023).
Strand notation (5' to 3'): a small letter for the sugar, then the base; units joined by * are phosphorothioate-linked, units joined directly phosphodiester-linked; [ ] holds rarer units or linkages, { } end groups; capitals alone tell only the bases. e = 2'-O-(2-methoxyethyl) (MOE); [5mC] = 5-methylcytosine; d = 2'-deoxy (DNA)

system: human PKK mRNA; assay: Antisense inhibition of human PKK mRNA in HepaRG cells, 5,000 nM (Example 2); type: cell-based; conditions: HepaRG cells, 5,000 nM antisense oligonucleotide, human PKK mRNA; Table 18
How it was run: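 HepaRG cells (20,000/well) electroporated with 5,000 nM MOE gapmer (phosphorothioate backbone, 5-methylcytosines) and harvested after ~24 h. PKK mRNA measured by qRT-PCR with primer probe set RTS3454, normalized to RIBOGREEN total RNA; percent inhibition versus untreated cells.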

Substance | % inhibition [%]
548723 (DNA e[5mC]*eA*e[5mC]*dT*dG*dT*dA*d[5mC]*dT*dA*dG*dT*dT*eT*e[5mC]*e[5mC]*eT; antisense) [compound 548723] | 62

same assay, conditions: HepaRG cells, 5,000 nM antisense oligonucleotide; 5-10-5 gapmers; Table 16

Substance | % inhibition [%]
547684 (antisense eT*eA*eA*e[5mC]*eT*dA*dT*dA*dT*d[5mC]*dA*d[5mC]*dT*dG*dT*e[5mC]*e[5mC]*eT*eA*eT) [compound 547684] | 43
546975 (eG*eG*e[5mC]*e[5mC]*eT*dG*dG*dA*dT*dA*d[5mC]*dA*dG*d[5mC]*d[5mC]*eT*eT*eT*e[5mC]*eT; antisense) [compound 546975] | 70
547704 (antisense eA*e[5mC]*eA*eT*e[5mC]*dT*dT*dG*dT*d[5mC]*dA*dT*dT*dA*dA*e[5mC]*eA*eT*e[5mC]*e[5mC]) [compound 547704] | 61

same assay, conditions: HepaRG cells, 5,000 nM antisense oligonucleotide; 5-10-5 gapmers; Table 17

Substance | % inhibition [%]
547770 (antisense eT*eG*e[5mC]*eT*eT*dT*d[5mC]*dT*dG*d[5mC]*d[5mC]*d[5mC]*dA*dA*d[5mC]*e[5mC]*eT*e[5mC]*eT*eA) [compound 547770] | 48

same assay, conditions: HepaRG cells, electroporation with 5,000 nM antisense oligonucleotide, approximately 24 hours, PKK mRNA by RT-PCR (RTS3454), relative to untreated control cells; Table 5 experiment

Substance | % inhibition [%]
546156 (eG*eA*eA*eT*eG*dT*dG*d[5mC]*dA*d[5mC]*d[5mC]*dT*d[5mC]*dA*dT*e[5mC]*eT*eG*eG*e[5mC]; antisense) [compound 546156] | 81
547305 (antisense eA*e[5mC]*e[5mC]*eA*eA*dA*d[5mC]*d[5mC]*dT*dT*dT*dT*d[5mC]*dT*d[5mC]*e[5mC]*eA*eT*eG*eT) [compound 547305] | 47
546144 (e[5mC]*eA*e[5mC]*eA*eG*dG*dA*dA*dA*d[5mC]*dT*dG*dT*dA*dG*e[5mC]*eA*eA*eA*e[5mC]; antisense) [compound 546144] | 75

same assay, conditions: HepaRG cells, electroporation with 5,000 nM antisense oligonucleotide, approximately 24 hours, PKK mRNA by RT-PCR (RTS3454), relative to untreated control cells; Table 6 experiment

Substance | % inhibition [%]
547363 (eG*eG*e[5mC]*eA*eA*d[5mC]*dA*dT*d[5mC]*d[5mC]*dA*d[5mC]*dA*dT*d[5mC]*eT*eG*eA*eG*eA; antisense) [compound 547363] | 84
546200 (antisense eA*eA*eA*eA*e[5mC]*dT*dG*dG*d[5mC]*dA*dG*d[5mC]*dG*dA*dA*eT*eG*eT*eT*eA) [compound 546200] | 91

same assay, conditions: HepaRG cells, electroporation, 5,000 nM antisense oligonucleotide, approx. 24 hours, primer probe set RTS3454, relative to untreated control cells; Table 11

Substance | % inhibition [%]
547523 (antisense eT*eT*eG*eT*e[5mC]*dA*dG*d[5mC]*d[5mC]*d[5mC]*d[5mC]*dT*dG*dG*dT*eT*eA*e[5mC]*eG*eG) [compound 547523] | 69
546357 (antisense eG*e[5mC]*eT*eT*eT*dT*d[5mC]*d[5mC]*dA*dT*d[5mC]*dA*d[5mC]*dT*dG*e[5mC]*eT*e[5mC]*eT*eG) [compound 546357] | 79
547507 (antisense e[5mC]*eA*eG*eG*e[5mC]*dT*d[5mC]*dA*dG*dA*dA*dT*dT*dT*dG*eA*e[5mC]*eT*eT*eG) [compound 547507] | 56
546365 (antisense eA*eG*eA*e[5mC]*eT*d[5mC]*dT*dG*dG*dA*d[5mC]*dT*dG*d[5mC]*dT*eT*e[5mC]*eT*e[5mC]*eA) [compound 546365] | 64
547498 (antisense e[5mC]*eT*eG*eG*eA*d[5mC]*dT*dG*d[5mC]*dT*dT*d[5mC]*dT*d[5mC]*dA*eT*eG*e[5mC]*eT*eG) [compound 547498] | 44

same assay, conditions: HepaRG cells, electroporation, 5,000 nM antisense oligonucleotide, approx. 24 hours, primer probe set RTS3454, relative to untreated control cells; Table 12

Substance | % inhibition [%]
546499 (eT*e[5mC]*e[5mC]*eA*eT*dG*d[5mC]*dA*dT*dA*d[5mC]*dT*d[5mC]*dG*d[5mC]*e[5mC]*eT*eT*eT*eG; antisense) [compound 546499] | 20

same assay, conditions: Table 7; HepaRG cells, electroporation with 5,000 nM antisense oligonucleotide, approx. 24 hours; PKK mRNA by RT-PCR (RTS3454), relative to untreated control cells

Substance | % inhibition [%]
546243 (eA*eG*eA*eA*eT*dG*dG*d[5mC]*dA*dG*dG*dG*dT*dT*d[5mC]*eA*eG*eG*eT*eA; antisense) [compound 546243] | 16
546231 (e[5mC]*eT*eT*eG*eG*dT*dG*dT*dG*d[5mC]*d[5mC]*dA*d[5mC]*dT*dT*eT*e[5mC]*eA*eG*eA; antisense) [compound 546231] | 79
547393 (eT*eG*e[5mC]*eA*eG*dG*dT*dT*dA*dA*dA*dA*dG*dG*d[5mC]*eT*eA*eT*eA*eT; antisense) [compound 547393] | 73

same assay, conditions: Table 8; HepaRG cells, electroporation with 5,000 nM antisense oligonucleotide, approx. 24 hours; PKK mRNA by RT-PCR (RTS3454), relative to untreated control cells

Substance | % inhibition [%]
547412 (eA*eT*e[5mC]*eA*eT*d[5mC]*dT*dT*dT*dG*dT*dG*d[5mC]*dA*dA*eG*eT*e[5mC]*eT*e[5mC]; antisense) [compound 547412] | 73
547421 (e[5mC]*eA*eT*e[5mC]*e[5mC]*dA*dT*dA*dG*dA*dT*dA*dA*dT*d[5mC]*eT*eT*eA*eA*eG; antisense) [compound 547421] | 69

same assay, conditions: Table 9 experiment; HepaRG cells, 20,000 cells per well, electroporation with 5,000 nM antisense oligonucleotide, approx. 24 hours; PKK mRNA by RT-PCR (RTS3454), relative to untreated control cells

Substance | % inhibition [%]
546328 (antisense eG*eA*eA*eG*e[5mC]*d[5mC]*d[5mC]*d[5mC]*dA*dT*d[5mC]*d[5mC]*dG*dG*dT*eT*eA*e[5mC]*e[5mC]*e[5mC]) [compound 546328] | 84
546352 (antisense e[5mC]*eA*e[5mC]*e[5mC]*eA*dG*dG*dT*dT*dG*d[5mC]*dT*d[5mC]*d[5mC]*d[5mC]*eT*eG*e[5mC]*eG*eG) [compound 546352] | 75
547462 (antisense eG*eT*eG*eT*eA*dA*dT*dT*d[5mC]*dA*dA*dA*dG*dG*dA*eG*e[5mC]*e[5mC]*eT*eG) [compound 547462] | 59
546308 (antisense eA*e[5mC]*eT*eT*eT*dA*dT*dA*dG*dT*dT*dT*dT*dG*dG*eT*eG*eA*eA*eT) [compound 546308] | 57

same assay, conditions: Table 10 experiment; HepaRG cells, 20,000 cells per well, electroporation with 5,000 nM antisense oligonucleotide, approx. 24 hours; PKK mRNA by RT-PCR (RTS3454), relative to untreated control cells

Substance | % inhibition [%]
546328 (antisense eG*eA*eA*eG*e[5mC]*d[5mC]*d[5mC]*d[5mC]*dA*dT*d[5mC]*d[5mC]*dG*dG*dT*eT*eA*e[5mC]*e[5mC]*e[5mC]) [compound 546328] | 81
546352 (antisense e[5mC]*eA*e[5mC]*e[5mC]*eA*dG*dG*dT*dT*dG*d[5mC]*dT*d[5mC]*d[5mC]*d[5mC]*eT*eG*e[5mC]*eG*eG) [compound 546352] | 74
547462 (antisense eG*eT*eG*eT*eA*dA*dT*dT*d[5mC]*dA*dA*dA*dG*dG*dA*eG*e[5mC]*e[5mC]*eT*eG) [compound 547462] | 54
546308 (antisense eA*e[5mC]*eT*eT*eT*dA*dT*dA*dG*dT*dT*dT*dT*dG*dG*eT*eG*eA*eA*eT) [compound 546308] | 43

same assay, conditions: Table 13; human PKK mRNA in HepaRG cells; 5-10-5 gapmers

Substance | % inhibition [%]
546773 (eT*e[5mC]*eT*e[5mC]*eT*dA*dG*d[5mC]*dA*dT*d[5mC]*d[5mC]*dT*dA*dG*eT*e[5mC]*e[5mC]*eT*e[5mC]; antisense) [compound 546773] | 67
546795 (eG*eT*e[5mC]*eT*e[5mC]*dG*dA*dT*dG*dG*d[5mC]*dA*dA*dG*d[5mC]*eT*eG*eT*eA*e[5mC]; antisense) [compound 546795] | 72
546770 (eG*eT*eG*eG*eA*d[5mC]*dG*dA*d[5mC]*dT*dG*d[5mC]*d[5mC]*d[5mC]*dT*eG*eT*eG*e[5mC]*e[5mC]; antisense) [compound 546770] | 74
546735 (e[5mC]*eA*eA*e[5mC]*e[5mC]*dT*dG*dT*d[5mC]*d[5mC]*dA*dT*dT*d[5mC]*d[5mC]*e[5mC]*eT*eG*eG*eG; antisense) [compound 546735] | 46

same assay, conditions: human PKK mRNA in HepaRG cells; 5-10-5 gapmers; Table 14

Substance | % inhibition [%]
547588 (eA*e[5mC]*eT*eA*eT*dA*dA*d[5mC]*dA*dG*dT*dA*dT*d[5mC]*dA*e[5mC]*eT*eG*eT*e[5mC]; antisense) [compound 547588] | 83
546879 (eT*eT*eT*e[5mC]*e[5mC]*dT*dA*dT*dA*dA*d[5mC]*dA*dG*dT*dA*eT*e[5mC]*eA*e[5mC]*eT; antisense) [compound 546879] | 42
546874 (eA*eT*eA*eA*e[5mC]*dA*dA*dT*dA*dT*d[5mC]*dA*d[5mC]*dT*dG*eT*eA*e[5mC]*e[5mC]*eT; antisense) [compound 546874] | 68
546851 (eA*eG*eT*eA*eT*d[5mC]*dA*d[5mC]*dT*dG*dT*d[5mC]*d[5mC]*dT*dA*eT*eA*eT*e[5mC]*eA; antisense) [compound 546851] | 81
546869 (eT*eG*eT*eA*e[5mC]*d[5mC]*dT*dA*dT*dA*dA*d[5mC]*dT*d[5mC]*dT*eA*eA*e[5mC]*eA*eG; antisense) [compound 546869] | 53
546863 (eT*eA*eA*e[5mC]*eT*dA*dT*dA*dA*d[5mC]*dA*dA*dT*dA*dT*e[5mC]*eA*e[5mC]*eT*eG; antisense) [compound 546863] | 21

same assay, conditions: human PKK mRNA, HepaRG cells, 5,000 nM antisense oligonucleotide, Table 18

Substance | % inhibition [%]
548765 (antisense eA*eT*eA*eT*d[5mC]*dA*d[5mC]*dT*dG*dT*d[5mC]*d[5mC]*dT*eA*eT*eA*eA) [compound 548765] | 0
548778 (antisense eA*eT*eA*eA*d[5mC]*dA*dG*dT*dA*dT*d[5mC]*dA*d[5mC]*eT*eG*eT*eA) [compound 548778] | 20
548750 (antisense e[5mC]*eT*eG*eT*dA*d[5mC]*dT*dA*dG*dT*dT*dT*d[5mC]*d[5mC]*eT*eA*eT*eA) [compound 548750] | 62
548761 (antisense e[5mC]*eT*eA*eA*d[5mC]*dA*dG*dT*dA*dT*d[5mC]*dA*d[5mC]*eT*eG*eT*eA) [compound 548761] | 49
548736 (DNA eT*eA*eT*e[5mC]*dA*d[5mC]*dT*dG*dT*dA*d[5mC]*dT*dA*dG*eT*eT*eT; antisense) [compound 548736] | 21

same assay, conditions: human PKK mRNA, HepaRG cells; 5-10-5 motif oligonucleotides targeting SEQ ID NO: 1 and 10

Substance | % inhibition [%]
547663 (eT*eA*e[5mC]*e[5mC]*eT*dA*dT*dA*dA*d[5mC]*dT*dA*dT*dA*dA*e[5mC]*eA*eG*eT*eA; antisense) [compound 547663] | 10
